Test results from patent US8765748B2, “Indazolyl, benzimidazolyl, benzotriazolyl substituted indolinone derivatives as kinase inhibitors useful in the treatment of cancer” (University Health Network, priority 2007, dated 2014).
pIC50: −log10 of the molar value.

Columns and labels:
Type in all cases: biochemical
human PLK4 = biological target: T1, human PLK4 (Homo sapiens, UniProt O00444); test: PLK4 Inhibition Assay (indirect ELISA); settings: 15 μM ATP, 4 nM GST-PLK4; read-out: PLK4 IC50 Ranges
T1 construct: amino terminal GST fusion of residues 1-391 of human PLK4; made in house; host or cells: E. coli
T1 sequence (O00444 1-391): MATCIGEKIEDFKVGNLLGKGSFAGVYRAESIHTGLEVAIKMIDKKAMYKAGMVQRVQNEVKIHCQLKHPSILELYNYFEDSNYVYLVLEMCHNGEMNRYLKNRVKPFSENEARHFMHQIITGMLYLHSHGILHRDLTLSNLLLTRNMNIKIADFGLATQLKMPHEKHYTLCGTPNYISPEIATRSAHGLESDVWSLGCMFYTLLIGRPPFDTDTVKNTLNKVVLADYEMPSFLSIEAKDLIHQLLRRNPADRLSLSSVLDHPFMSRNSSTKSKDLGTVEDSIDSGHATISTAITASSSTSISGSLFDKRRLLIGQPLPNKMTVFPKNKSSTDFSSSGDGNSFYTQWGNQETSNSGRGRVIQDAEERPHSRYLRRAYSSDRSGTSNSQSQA
Protocol: The protein was purified from clarified cell extracts after induction at 15° C. overnight using glutathione sepharose, gel permeation chromatography, and ion exchange (Resource Q). The resulting protein was dephosphorylated with lambda phosphatase (NEB cat #P0753), and resolved from the phosphatase using gluthione sepharose. The dephosphorylated GST-PLK4 was stored in aliquots at −80° C. until use. PLK4 activity was measured using an indirect ELISA detection system. […] Compounds were pre-incubated in the presence of enzyme for 15 minutes prior to addition of ATP and the activity remaining quantified using the above described activity assay. […] The IC50 value was determined using a non-linear 4 point logistic curve fit (XLfit4, IDBS) with the formula; (A+(B/(1+((x/C)^D)))), where A=background value, B=range, C=inflection point, D=curve fit parameter.

Aurora B = biological target: T2, Aurora B (Homo sapiens, UniProt Q96GD4); test: Aurora B Inhibition Assay (Z-Lyte); settings: 128 μM ATP, 28 nM Aurora B; read-out: Aurora B IC50 Ranges
T2 construct: purchased Invitrogen PV3970
Protocol: (§1) Aurora B inhibition was determined using the Z-Lyte assay kit from Invitrogen. The assay was performed using the recommended manufacturer's instructions with 128 μM ATP and 28 nM Aurora B (Invitrogen cat #PV3970). The % inhibition values were determined according to the manufacturer's directions and IC50 values were obtained using a non-linear 4 point logistic curve fit (XLfit4, IDBS)

Aurora A = biological target: T3, Aurora A (Homo sapiens, UniProt O14965); test: Aurora A Inhibition Assay (Z-Lyte); settings: 20 μM ATP, 12 nM Aurora A; read-out: Aurora A IC50 Ranges
T3 construct: purchased Invitrogen PV3612
T3 sequence (O14965 1-403): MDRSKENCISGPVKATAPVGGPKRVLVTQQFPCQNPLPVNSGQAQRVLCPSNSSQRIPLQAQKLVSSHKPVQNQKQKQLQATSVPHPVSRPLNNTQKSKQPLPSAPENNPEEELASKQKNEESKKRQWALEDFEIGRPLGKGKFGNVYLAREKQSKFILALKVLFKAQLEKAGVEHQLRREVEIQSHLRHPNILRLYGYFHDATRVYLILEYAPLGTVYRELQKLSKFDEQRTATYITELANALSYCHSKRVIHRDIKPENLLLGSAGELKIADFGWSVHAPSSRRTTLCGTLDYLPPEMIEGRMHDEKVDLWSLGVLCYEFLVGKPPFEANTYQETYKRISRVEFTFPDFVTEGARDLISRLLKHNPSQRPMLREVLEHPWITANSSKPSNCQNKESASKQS
Protocol: as §1, with “Aurora A” for “Aurora B”, “with 20” for “with 128”, “and 12” for “and 28”, “cat #PV3612).” for “cat #PV3970).”

PLK1 = biological target: T4, PLK1 (Homo sapiens, UniProt P53350); test: PLK1 Inhibition Assay (Z-Lyte); settings: 25 μM ATP, 8 nM PLK1; read-out: PLK1 IC50 Ranges
T4 construct: purchased Invitrogen PV3501
Protocol: PLK1 inhibition was determined using the Z-Lyte assay kit from Invitrogen (cat #PV3802). […] The % inhibition values were determined according to the manufacturer's directions and IC50 values were obtained using a non-linear 4 point logistic curve fit (XLfit4, IDBS)

T2 sequence (Q96GD4 whole entry): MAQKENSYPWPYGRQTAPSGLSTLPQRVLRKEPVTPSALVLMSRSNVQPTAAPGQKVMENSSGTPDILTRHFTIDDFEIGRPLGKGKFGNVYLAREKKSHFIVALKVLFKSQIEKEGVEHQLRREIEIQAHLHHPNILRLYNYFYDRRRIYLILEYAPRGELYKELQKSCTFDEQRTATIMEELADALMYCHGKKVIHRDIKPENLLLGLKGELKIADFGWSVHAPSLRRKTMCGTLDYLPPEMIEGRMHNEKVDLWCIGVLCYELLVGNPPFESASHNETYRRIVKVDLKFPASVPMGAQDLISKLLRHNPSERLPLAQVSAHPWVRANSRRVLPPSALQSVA
T4 sequence (P53350 whole entry): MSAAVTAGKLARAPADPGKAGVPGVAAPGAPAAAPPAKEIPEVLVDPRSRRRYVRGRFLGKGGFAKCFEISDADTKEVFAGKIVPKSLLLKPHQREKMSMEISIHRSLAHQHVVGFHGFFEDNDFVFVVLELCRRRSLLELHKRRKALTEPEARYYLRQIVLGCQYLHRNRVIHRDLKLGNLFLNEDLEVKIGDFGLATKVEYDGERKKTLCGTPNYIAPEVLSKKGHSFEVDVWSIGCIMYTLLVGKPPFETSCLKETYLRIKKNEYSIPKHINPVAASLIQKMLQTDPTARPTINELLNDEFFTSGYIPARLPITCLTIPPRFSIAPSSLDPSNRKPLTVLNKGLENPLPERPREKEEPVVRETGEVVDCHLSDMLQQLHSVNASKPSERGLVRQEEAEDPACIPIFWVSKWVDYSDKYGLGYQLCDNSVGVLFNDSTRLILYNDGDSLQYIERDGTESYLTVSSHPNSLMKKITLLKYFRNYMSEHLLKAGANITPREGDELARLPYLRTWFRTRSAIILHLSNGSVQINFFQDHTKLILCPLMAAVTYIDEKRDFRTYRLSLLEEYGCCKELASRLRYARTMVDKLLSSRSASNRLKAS

| Compound | pIC50 (human PLK4) | pIC50 (Aurora B) | pIC50 (Aurora A) | pIC50 (PLK1) |
| --- | --- | --- | --- | --- |
| COc1ccc2c(c1)C(=Cc1ccc3c(/C=C/c4ccc(CN(C)C)cc4)n[nH]c3c1)C(=O)N2 (stereo in doubt) [Example A136b, (Z)-3-((3-(4-((dimethylamino)methyl)styryl)-1H-indazol-6-yl)-methylene)-5-methoxyindolin-2-one 2,2,2-trifluoroacetate] | – | > 5.30 | > 5.30 | – |
| CNC(=O)c1ccc2c(c1)/C(=C\c1ccc3cn[nH]c3c1)C(=O)N2 [Example A8, (E)-3-((1H-indazol-6-yl)methylene)-N-methyl-2-oxoindoline-5-carboxamide] | 4.30 to 5.30 | – | – | 4.30 to 5.30 |
| CC(=O)Nc1ccc2c(c1)NC(=O)/C2=C/c1ccc2nn[nH]c2c1 [Example A17, (E)-N-(3-((1H-benzo[d][1,2,3]triazol-5-yl)methylene)-2-oxoindolin-6-yl)acetamide] | 4.30 to 5.30 | – | – | 4.30 to 5.30 |
| CC(C)NC(=O)Nc1ccc2c(c1)/C(=C\c1ccc3nn[nH]c3c1)C(=O)N2 [Example A27, (E)-1-(3-((1H-benzo[d][1,2,3]triazol-5-yl)methylene)-2-oxoindolin-5-yl)-3-isopropylurea] | 4.30 to 5.30 | – | – | 4.30 to 5.30 |
| O=C1Nc2cc(-c3cccnc3)ccc2/C1=C\c1ccc2[nH]ncc2c1 [Example A30, (E)-3-((1H-indazol-5-yl)methylene)-6-(pyridin-3-yl)indolin-2-one] | 4.30 to 5.30 | – | – | < 4.30 |
| CN1C(=O)/C(=C/c2ccc3nn[nH]c3c2)c2ccccc21 [Example A33, (E)-3-((1H-benzo[d][1.2.3]triazol-5-yl)methylene)-1-methylindolin-2-one] | 4.30 to 5.30 | – | – | < 4.30 |
| CN1C(=O)/C(=C/c2ccc3cn[nH]c3c2)c2ccccc21 [Example A34, (E)-3-((1H-indazol-6-yl)methylene)-1-methylindolin-2-one] | 4.30 to 5.30 | – | – | 4.30 to 5.30 |
| COc1ccc2c(c1)/C(=C\c1ccc3c(/C=C/c4cccc[n+]4[O-])n[nH]c3c1)C(=O)N2 [Example A88, 2-((E)-2-(6-((E)-(5-methoxy-2-oxoindolin-3-ylidene)methyl)-1H-indazol-3-yl)vinyl)pyridine 1-oxide] | > 5.30 | > 5.30 | – | – |
| CC(C)(C)OC(=O)Nc1ccc2c(c1)/C(=C\c1ccc3c(/C=C/c4ccncc4)n[nH]c3c1)C(=O)N2 [Example A121, tert-butyl(E)-2-oxo-3-((3-((E)-2-(pyridin-4-yl)vinyl)-1H-indazol-6-yl)methylene)indolin-5-ylcarbamate] | > 5.30 | > 5.30 | – | – |
| Nc1ccc2c(c1)/C(=C\c1ccc3c(/C=C/c4ccncc4)n[nH]c3c1)C(=O)N2 [Example A122, (E)-5-amino-3-((3-((E)-2-(pyridin-4-yl)vinyl)-1H-indazol-6-yl)-methylene)indolin-2-one bis(2,2,2-trifluoroacetate)] | > 5.30 | > 5.30 | – | – |
| COc1ccc2c(c1)/C(=C\c1ccc3c(/C=C/c4ccc(CN(C)C)cc4)n[nH]c3c1)C(=O)N2 [Example A136a, (E)-3-((3-(4-((dimethylamino)methyl)styryl)-1H-indazol-6-yl)-methylene)-5-methoxyindolin-2-one 2,2,2-trifluoroacetate] | – | > 5.30 | – | – |

The next lines start with the values.

| pIC50 (human PLK4) | pIC50 (Aurora B) | pIC50 (Aurora A) | pIC50 (PLK1) | Compound |
| --- | --- | --- | --- | --- |
| > 5.30 | > 5.30 | – | – | O=C1Nc2ccccc2C1=Cc1cc(/C=C/c2ccncc2)c2cn[nH]c2c1 (mixture of isomers) [Example A55, (E and Z)-3-((4-((E)-2-(pyridin-4-yl)vinyl)-1H-indazol-6-yl)methylene)indolin-2-one] |
| > 5.30 | > 5.30 | – | – | CN(C)CCN(C)S(=O)(=O)c1ccc2c(c1)C(=Cc1ccc3c(/C=C/c4ccncc4)n[nH]c3c1)C(=O)N2 (mixture of isomers) [Example A129, (E and Z)—N-(2-(dimethylamino)ethyl)-N-methyl-2-oxo-3-((3-((E)-2-(pyridin-4-yl)vinyl)-1H-indazol-6-yl)methylene)indoline-5-sulfonamide] |
| > 5.30 | > 5.30 | – | – | CN(C)CCCNc1ccc2c(c1)C(=Cc1ccc3c(/C=C/c4ccncc4)n[nH]c3c1)C(=O)N2 (mixture of isomers) [Example A130, (E and Z)-5-(3-(dimethylamino)propylamino)-3-((3-((E)-2-(pyridin-4-yl)-vinyl)-1H-indazol-6-yl)methylene)indolin-2-one] |
| > 5.30 | – | – | 4.30 to 5.30 | CC(C)(C)OC(=O)Nc1ccc2c(c1)/C(=C\c1ccc3cn[nH]c3c1)C(=O)N2 [Example A12, (E)-tert-butyl 3-((1H-indazol-6-yl)methylene)-2-oxoindolin-5-ylcarbamate] |
| > 5.30 | – | – | < 4.30 | O=C1Nc2ccc(OC(F)(F)F)cc2/C1=C\c1ccc2nn[nH]c2c1 [Example A14, (E)-3-((1H-benzo[d][1,2,3]triazol-5-yl)methylene)-5-(trifluoromethoxy)indolin-2-one] |
| > 5.30 | – | – | 4.30 to 5.30 | Nc1ccc2c(c1)/C(=C\c1ccc3cn[nH]c3c1)C(=O)N2 [Example A15, (E)-3-((1H-indazol-6-yl)methylene)-2-oxoindolin-5-aminium 2,2,2-trifluoroacetate] |
| > 5.30 | – | – | 4.30 to 5.30 | CC(=O)Nc1ccc2c(c1)NC(=O)/C2=C/c1ccc2[nH]ncc2c1 [Example A18] |
| > 5.30 | – | – | > 5.30 | CN(C)S(=O)(=O)Nc1ccc2c(c1)/C(=C\c1ccc3cn[nH]c3c1)C(=O)N2 [Example A20, N′-[(3E)-3-(1H-indazol-6-ylmethylidene)-2-oxo-2,3-dihydro-1H-indol-5-yl]-N,N-dimethylsulfamide] |
| > 5.30 | – | – | 4.30 to 5.30 | CN(C)S(=O)(=O)Nc1ccc2c(c1)/C(=C\c1ccc3nn[nH]c3c1)C(=O)N2 [Example A21, N′-[(3E)-3-(1H-benzotriazol-5-ylmethylidene)-2-oxo-2,3-dihydro-1H-indol-5-yl]-N,N-dimethylsulfamide] |
| > 5.30 | – | – | 4.30 to 5.30 | CC(=O)Nc1ccc2c(c1)/C(=C\c1ccc3nn[nH]c3c1)C(=O)N2 [Example A23, (E)-N-(3-((1H-benzo[d][1,2,3]triazol-5-yl)methylene)-2-oxoindolin-5-yl)acetamide] |
| > 5.30 | – | – | 4.30 to 5.30 | CS(=O)(=O)Nc1ccc2c(c1)/C(=C\c1ccc3nn[nH]c3c1)C(=O)N2 [Example A24, (E)-N-(3-((1H-benzo[d][1,2,3]triazol-5-yl)methylene)-2-oxoindolin-5-yl)methanesulfonamide] |
| > 5.30 | – | – | > 5.30 | CS(=O)(=O)Nc1ccc2c(c1)/C(=C\c1ccc3cn[nH]c3c1)C(=O)N2 [Example A25, (E)-N-(3-((1H-indazol-6-yl)methylene)-2-oxoindolin-5-yl)methanesulfonamide] |
| > 5.30 | – | – | < 4.30 | O=C1Nc2cc(-c3cccnc3)ccc2/C1=C\c1ccc2[nH]nnc2c1 [Example A29, (E)-3-((1H-benzo[d][1,2,3]triazol-5-yl)methylene)-6-(pyridin-3-yl)indolin-2-one] |
| > 5.30 | 4.30 to 5.30 | – | – | C/C(=C1\C(=O)Nc2ccccc21)c1ccc2cn[nH]c2c1 [Example A51, (E)-3-(1-(1H-indazol-6-yl)ethylidene)indolin-2-one] |
